Assay [1] relates to (poly[dG-dC])2 (DNA, polymer) GC. Nature of the assay: intrinsic fluorescence titration. The following applies: 100 mM NaCl; 50 mM Tris-HCl, 0.1 mM EDTA, pH 7.4; 2 μM ridinilazole, polymer titrated.
Assay [2] deals with dsOligo 1 (CGCGAATTCGCG) (DNA, duplex) CGCGAATTCGCG
Nature of the assay: X-ray crystallography (2.2 Å). The note with it: minor groove at AATT; mixed 1:1, 4% DMSO; crystals at 14 °C.

Assay [3] concerns (poly[dA-dT])2 (DNA, polymer) AT. The assay can be described thus: intrinsic fluorescence titration. The note with it: 100 mM NaCl; 50 mM Tris-HCl, 0.1 mM EDTA, pH 7.4; 2 μM ridinilazole, polymer titrated.
Assay [4] concerns dsOligo 2 (CGCAAATTTGCG) (DNA, duplex) CGCAAATTTGCG
The assay can be described thus: intrinsic fluorescence titration, tight-binding linear fit. The note with it: 100 mM NaCl; 50 mM Tris-HCl, 0.1 mM EDTA, pH 7.4; oligo titrated into fixed ridinilazole.

The test system of assay [5] is dsOligo 1 (CGCGAATTCGCG) (DNA, duplex) CGCGAATTCGCG
The description is as above. The note with it: 100 mM NaCl; 50 mM Tris-HCl, 0.1 mM EDTA, pH 7.4; oligo titrated into fixed ridinilazole.

For assay [6], the system named is poly(dA)·poly(dT) (DNA, polymer) A/T. Nature of the assay: intrinsic fluorescence titration. The following applies: 100 mM NaCl; 50 mM Tris-HCl, 0.1 mM EDTA, pH 7.4; 2 μM ridinilazole, polymer titrated.

`c1cc(-c2nc3cc(-c4ccc5nc(-c6ccncc6)[nH]c5c4)ccc3[nH]2)ccn1`: the binding entry in assay [1] was “no”; in assay [2], “yes”; in assay [3], “yes”; in assay [6], “yes”. For the same compound, the Kd in assay [4] came to 21.3 nM; in assay [5], 21.6 nM.

A word on the Kd: it is a measure of binding affinity in units of concentration. High values mean weaker binding, low ones tighter binding.

The record behind these values is publication PMC10246881 (2023).
